Structures can show the parent of a compound that is named as a salt.
Molecular target: T1, human GlyT1c transporter (Homo sapiens, UniProt P48067)
T1 construct: expressed in transfected cells; host or cells: recombinant CHO cells (membranes); the uptake assay names the line hGlyT1c_5_CHO
T1 sequence (P48067 1-706): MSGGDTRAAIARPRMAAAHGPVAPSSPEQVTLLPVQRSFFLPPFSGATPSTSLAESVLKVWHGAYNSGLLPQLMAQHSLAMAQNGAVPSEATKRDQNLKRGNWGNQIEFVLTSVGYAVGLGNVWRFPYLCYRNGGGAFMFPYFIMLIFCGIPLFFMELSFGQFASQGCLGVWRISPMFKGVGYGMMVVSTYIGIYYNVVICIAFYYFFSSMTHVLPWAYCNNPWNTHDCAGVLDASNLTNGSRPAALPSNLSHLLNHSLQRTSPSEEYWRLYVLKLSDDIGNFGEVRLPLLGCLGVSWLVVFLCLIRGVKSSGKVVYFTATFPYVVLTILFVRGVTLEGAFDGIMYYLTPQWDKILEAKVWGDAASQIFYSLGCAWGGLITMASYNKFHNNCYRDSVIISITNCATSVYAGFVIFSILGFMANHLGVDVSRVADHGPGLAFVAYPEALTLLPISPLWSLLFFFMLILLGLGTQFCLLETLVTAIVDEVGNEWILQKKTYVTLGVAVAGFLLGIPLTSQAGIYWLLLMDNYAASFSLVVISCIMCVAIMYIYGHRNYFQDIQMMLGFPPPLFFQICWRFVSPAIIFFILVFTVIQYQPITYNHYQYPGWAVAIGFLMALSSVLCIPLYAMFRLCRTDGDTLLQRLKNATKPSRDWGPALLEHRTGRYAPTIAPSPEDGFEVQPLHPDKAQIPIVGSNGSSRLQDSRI
Test: Radioligand binding assay using recombinant CHO cell membranes expressing human GlyT1
Conditions: read-out: radioligand binding Kiapp
Protocol: 2. Radioligand Binding Assays Using Recombinant CHO Cell Membranes Expressing Human GlyT1:
Radioligand binding to human GlyT1c transporter-expressing membranes was determined as described in Mezler et al., Molecular Pharmacology 74:1705-1715, 2008.

SMILES | Ki [nM]
COc1ccc2c(c1)C(Cc1ccccc1)NCCC2 (stereo not drawn) [Example 1, 1-Benzyl-8-methoxy-2,3,4,5-tetrahydro-1H-benzo[c]azepine] | > 10000
Cn1cnc(S(=O)(=O)NCCOc2ccc3c(c2)C(Cc2ccccc2)NCCC3)c1 (stereo not drawn) [Example 2, N-(2-(1-Benzyl-2,3,4,5-tetrahydro-1H-benzo[c]azepin-8-yloxy)ethyl)-1-methyl-1H-imidazole-4-sulfonamide] | ≤ 100
Cn1cc(S(=O)(=O)NCCOc2ccc3c(c2)C(Cc2ccccc2)NCCC3)cn1 (stereo not drawn) [Example 3, N-(2-(1-Benzyl-2,3,4,5-tetrahydro-1H-benzo[c]azepin-8-yloxy)ethyl)-1-methyl-1H-pyrazole-4-sulfonamide] | ≤ 10
O=S(=O)(CC1CC1)NCCOc1ccc2c(c1)C(Cc1ccccc1)NCCC2 (stereo not drawn) [Example 4, N-(2-(1-benzyl-2,3,4,5-tetrahydro-1H-benzo[c]azepin-8-yloxy)ethyl)-1-cyclopropylmethanesulfonamide] | ≤ 100
COc1ccc2c(c1)C(C1(c3ccc(Cl)cc3)CCC1)NCCO2 (stereo not drawn) [Example 5, 5-(1-(4-Chlorophenyl)cyclobutyl)-7-methoxy-2,3,4,5-tetrahydrobenzo[f][1,4]oxazepine hydrochloride] | ≤ 10000
CN1CCCc2ccc(OCCNS(=O)(=O)c3cn(C)cn3)cc2C1Cc1ccccc1 (stereo not drawn) [Example 6, 1-Methyl-1H-imidazole-4-sulfonic acid [2-(1-benzyl-2-methyl-2,3,4,5-tetrahydro-1H-benzo[c]azepin-8-yloxy)-ethyl]-amide] | ≤ 10
CN1CCCc2ccc(OCCNS(=O)(=O)c3cnn(C)c3)cc2C1Cc1ccccc1 (stereo not drawn) [Example 7, 1-Methyl-1H-pyrazole-4-sulfonic acid [2-(1-benzyl-2-methyl-2,3,4,5-tetrahydro-1H-benzo[c]azepin-8-yloxy)-ethyl]amide] | ≤ 10
CCCS(=O)(=O)NCCOc1ccc2c(c1)C(Cc1ccc(Cl)cc1)NCCC2 (stereo not drawn) [Example 8, Propane-1-sulfonic acid {2-[1-(4-chlorobenzyl)-2,3,4,5-tetrahydro-1H-benzo[c]azepin-8-yloxy]-ethyl}-amide] | ≤ 1000
CCS(=O)(=O)NCCOc1ccc2c(c1)C(Cc1ccc(Cl)cc1)NCCC2 (stereo not drawn) [Example 9, Ethanesulfonic acid {2-[1-(4-chlorobenzyl)-2,3,4,5-tetrahydro-1H-benzo[c]azepin-8-yloxy]-ethyl}-amide] | ≤ 10000
CCCS(=O)(=O)NCCOc1ccc2c(c1)C(Cc1ccccc1)NCCC2 (stereo not drawn) [Example 10, Propane-1-sulfonic acid [2-(1-benzyl-2,3,4,5-tetrahydro-1H-benzo[c]azepin-8-yloxy)-ethyl]-amide] | ≤ 100
CCS(=O)(=O)NCCOc1ccc2c(c1)C(Cc1ccccc1)NCCC2 (stereo not drawn) [Example 11, Ethanesulfonic acid [2-(1-benzyl-2,3,4,5-tetrahydro-1H-benzo[c]azepin-8-yloxy)-ethyl]-amide] | ≤ 1000
O=S(=O)(CC1CC1)NCCOc1ccc2c(c1)C(Cc1ccc(Cl)cc1)NCCC2 (stereo not drawn) [Example 12, N-{2-[1-(4-Chlorobenzyl)-2,3,4,5-tetrahydro-1H-benzo[c]azepin-8-yloxy]-ethyl}-C-cyclopropyl-methanesulfonamide] | ≤ 1000
O=S(=O)(CC1CC1)NCCOc1ccc2c(c1)C(Cc1ccccc1)NCCC2 (stereo not drawn) [Example 13, N-{2-[1-Benzyl-2,3,4,5-tetrahydro-1H-benzo[c]azepin-8-yloxy]-ethyl}-C-cyclopropyl-methanesulfonamide] | ≤ 100
CCCS(=O)(=O)NCc1ccc2c(c1)C(Cc1ccc(Cl)cc1)NCCC2 (stereo not drawn) [Example 14, Propane-1-sulfonic acid [1-(4-chloro-benzyl)-2,3,4,5-tetra-hydro-1H-benzo[c]azepin-8-ylmethyl]-amide] | ≤ 1000
O=S(=O)(CC1CC1)NCc1ccc2c(c1)C(Cc1ccc(Cl)cc1)NCCC2 (stereo not drawn) [Example 15, N-[1-(4-Chloro-benzyl)-2,3,4,5-tetrahydro-1H-benzo[c]azepin-8-ylmethyl]-C-cyclopropyl-methanesulfonamide] | ≤ 10000
CCS(=O)(=O)NCc1ccc2c(c1)C(Cc1ccc(Cl)cc1)NCCC2 (stereo not drawn) [Example 16, Ethanesulfonic acid [1-(4-chloro-benzyl)-2,3,4,5-tetra-hydro-1H-benzo[c]azepin-8-ylmethyl]-amide] | ≤ 10000
O=S(=O)(NCc1ccc2c(c1)C(Cc1ccc(Cl)cc1)NCCC2)C1CCC1 (stereo not drawn) [Example 17, Cyclobutanesulfonic acid [1-(4-chloro-benzyl)-2,3,4,5-tetra-hydro-1H-benzo[c]azepin-8-ylmethyl]-amide] | ≤ 1000

SMILES | Ki [nM]
Cn1cnc(S(=O)(=O)NCc2ccc3c(c2)C(Cc2ccc(Cl)cc2)NCCC3)c1 (stereo not drawn) [Example 18, 1-Methyl-1H-imidazole-4-sulfonic acid [1-(4-chloro-benzyl)-2,3,4,5-tetrahydro-1H-benzo-[c]azepin-8-ylmethyl]-amide] | ≤ 1000
Cn1cc(S(=O)(=O)NCc2ccc3c(c2)C(Cc2ccc(Cl)cc2)NCCC3)cn1 (stereo not drawn) [Example 19, 1-Methyl-1H-pyrazole-4-sulfonic acid [1-(4-chloro-benzyl)-2,3,4,5-tetrahydro-1H-benzo-[c]azepin-8-ylmethyl]-amide] | ≤ 100
Cn1cnc(S(=O)(=O)NCCOc2ccc3c(c2)C(Cc2cccc(F)c2)NCCC3)c1 (stereo not drawn) [Example 20, 1-Methyl-1H-imidazole-4-sulfonic acid {2-[1-(3-fluoro-benzyl)-2,3,4,5-tetrahydro-1H-benzo[c]azepin-8-yloxy]-ethyl}-amide] | ≤ 10
Cn1cc(S(=O)(=O)NCCOc2ccc3c(c2)C(Cc2cccc(F)c2)NCCC3)cn1 (stereo not drawn) [Example 21, 1-Methyl-1H-pyrazole-4-sulfonic acid {2-[1-(3-fluoro-benzyl)-2,3,4,5-tetrahydro-1H-benzo[c]azepin-8-yloxy]-ethyl}-amide] | ≤ 10
Cn1cnc(S(=O)(=O)NCc2ccc3c(c2)C(Cc2cccc(F)c2)NCCC3)c1 (stereo not drawn) [Example 22, 1-Methyl-1H-imidazole-4-sulfonic acid [1-(3-fluoro-benzyl)-2,3,4,5-tetrahydro-1H-benzo[c]azepin-8-ylmethyl]-amide] | ≤ 10
CCCS(=O)(=O)NCCOc1ccc2c(c1)C(Cc1cccc(F)c1)NCCC2 (stereo not drawn) [Example 23, Propane-1-sulfonic acid {2-[1-(3-fluoro-benzyl)-2,3,4,5-tetrahydro-1H-benzo[c]azepin-8-yloxy]-ethyl}-amide] | ≤ 100
O=S(=O)(CC1CC1)NCCOc1ccc2c(c1)C(Cc1cccc(F)c1)NCCC2 (stereo not drawn) [Example 24, C-Cyclopropyl-N-{2-[1-(3-fluoro-benzyl)-2,3,4,5-tetrahydro-1H-benzo[c]azepin-8-yloxy]-ethyl}-methanesulfonamide] | ≤ 100
CCS(=O)(=O)NCCOc1ccc2c(c1)C(Cc1cccc(F)c1)NCCC2 (stereo not drawn) [Example 25, Ethanesulfonic acid {2-[1-(3-fluoro-benzyl)-2,3,4,5-tetrahydro-1H-benzo[c]azepin-8-yloxy]-ethyl}-amide] | ≤ 1000
Cn1cc(S(=O)(=O)NCc2ccc3c(c2)C(Cc2cccc(F)c2)NCCC3)cn1 (stereo not drawn) [Example 26, 1-Methyl-1H-pyrazole-4-sulfonic acid [1-(3-fluoro-benzyl)-2,3,4,5-tetrahydro-1H-benzo[c]azepin-8-ylmethyl]-amide] | ≤ 10
CCCS(=O)(=O)NCc1ccc2c(c1)C(Cc1cccc(F)c1)NCCC2 (stereo not drawn) [Example 27, Propane-1-sulfonic acid [1-(3-fluoro-benzyl)-2,3,4,5-tetrahydro-1H-benzo[c]azepin-8-ylmethyl]-amide] | ≤ 1000
O=S(=O)(CC1CC1)NCc1ccc2c(c1)C(Cc1cccc(F)c1)NCCC2 (stereo not drawn) [Example 28, C-Cyclopropyl-N-[1-(3-fluoro-benzyl)-2,3,4,5-tetrahydro-1H-benzo[c]azepin-8-ylmethyl)-methanesulfonamide] | ≤ 100
CCS(=O)(=O)NCc1ccc2c(c1)C(Cc1cccc(F)c1)NCCC2 (stereo not drawn) [Example 29, Ethanesulfonic acid [1-(3-fluoro-benzyl)-2,3,4,5-tetrahydro-1H-benzo[c]azepin-8-ylmethyl]-amide] | ≤ 1000
O=S(=O)(CC1CC1)NCc1ccc2c(c1)C(Cc1ccccc1)NCCC2 (stereo not drawn) [Example 30, N-(1-Benzyl-2,3,4,5-tetrahydro-1H-benzo[c]azepin-8-ylmethyl)-C-cyclopropyl-methane-sulfonamide] | ≤ 100
O=S(=O)(NCc1ccc2c(c1)C(Cc1ccccc1)NCCC2)C1CCC1 (stereo not drawn) [Example 31, Cyclobutanesulfonic acid (1-benzyl-2,3,4,5-tetrahydro-1H-benzo[c]azepin-8-ylmethyl)-amide] | ≤ 100
CCCS(=O)(=O)NCc1ccc2c(c1)C(Cc1ccccc1)NCCC2 (stereo not drawn) [Example 32, Propane-1-sulfonic acid (1-benzyl-2,3,4,5-tetrahydro-1H-benzo[c]-azepin-8-ylmethyl)-amide] | ≤ 1000
CCS(=O)(=O)NCc1ccc2c(c1)C(Cc1ccccc1)NCCC2 (stereo not drawn) [Example 33, Ethanesulfonic acid (1-benzyl-2,3,4,5-tetrahydro-1H-benzo[c]-azepin-8-ylmethyl)-amide] | ≤ 10000
